Experimental data reported in patent US20040102454A1, “Phenylahistin and the phenylahistin analogs, a new class of anti-tumor compounds” (priority 1998, published 2004).

What was measured:
Colon 26 cells = assay: In vivo antitumor activity against Colon 26
Description: (§1) Male BDF1 mice (6 weeks old) were inoculated subcutaneously in the right flank region with Lewis Lung Carcinoma cells (1×10^5 cells/body) on day 0. PLH [(−)-PLH content; 41.7%] was suspended in 10% ethanol-saline, and was administered daily at a dose of 24 mg/kg, 72 mg/kg, or 240 mg/kg intraperitoneally, as a single injection (0.2 ml/body), from days 1 to 14. Each group consisted of six mice. Mice were weighed, and the length (L) and the width (W) of the tumor were measured three times a week. On day 15, mice were sacrificed, and the tumor was excised and weighed. The estimated tumor weight (ETW) was calculated according to the following formula:
(§2) ETW (mg)=L (mm)×W^2 (mm^2 )/2,
(§3) Suppression rate (%)=[1×(TWt/TWc)]×100,
(§4) Average and standard errors were calculated for each group. Variance analysis was performed by the Bartlett method (significance level: 5%), and if the variance was uniform, a Dunnett's multiple comparison test was performed. However, if the variance was not uniform, rank conversion was performed followed by variance analysis again by the Bartlett method (significance level: 5%). Significance was established at the p<0.05 level.
Male CDFI mice (6 weeks old) were inoculated subcutaneously in the right flank region with Colon 26 cells (1×10^5 cells/body) on day 0. Each group consisted of six mice. Preparation and administration of PLH, and the evaluation of antitumor activity was carried out as described for Lewis Lung Carcinoma, in EXAMPLE 14.

[1] = test system: Lewis Lung Carcinoma cells; assay: In vivo antitumor activity against Lewis Lung Carcinoma
Description: as §1, §2
where L represents the length of the tumor and W represents the width of the tumor. The suppression rate was calculated according to the following formula:
as §3, §4

P388 cells = assay: Cell cycle progression of P388, flow cytometer; type: cell-based, murine; conditions: 1×10^−6 M, 8-hour incubation
Description: The effect of phenylahistin on the cell cycle progression of P388 cells was also investigated using a flow cytometer, as described in Krishan, A., J. Cell Biol. (1975) 66, 188-193. P388 cells in the log growth phase were seeded into flasks and cultured for 14 hours, and then various concentrations of phenylahistin were added to each flask. After an 8-hour incubation, the cells were harvested and fixed with 50% MeOH at −20° C. overnight. The cells were washed with 30% MeOH and then with 10 mM PBS, and treated with 50 :g/ml propidium iodide at 4° C. for 2 hours. DNA histograms were obtained using a flow cytometer (Cyto ACE-300:JASCO).

A549 cells = assay: Mitotic index; type: cell-based, human
Description: Exponentially growing A549 cells were seeded into 96-well tissue culture plates (2×10^3 cells/100:1/well) and cultured for 16 hours. (−)-PLH or CLC was then added to each well at various concentrations, and the plates were incubated for an additional 24 hours. The number of cells in mitosis (round cells) and total cells in eight randomly selected fields were counted under a phase-contrast microscope. In a series of preliminary studies, it was confirmed that the round cells in this condition were cells in mitosis by using flow cytometry and Hoechst 33258 staining. The mitotic index represented the percentage of round cells among the total number of cells in the eight selected fields.

[2] = test system: yeast strain Saccharomyces cerevisise HF7C; assay: Antimicrobial test, liquid culture medium dilution method; type: cell-based
Description: (§5) Using colibacillus strain JM109 as a gram-negative bacterium, Bacillus natto as a […] and Aspergillus niger IFO6341 as a mold, the following antimicrobial test was conducted by the filter paper agar flat plate method, wherein 100 μg of specimen was placed on 9 mm filter paper, dried in air, and standard agar culture medium was used for bacteria and potato dextrose agar culture medium for mold. […] An antimicrobial test was further conducted by the liquid culture medium dilution method using the yeast strain Saccharomyces cerevisise HF7C.

[3] = test system: colibacillus strain JM109; assay: Antimicrobial test, filter paper agar flat plate method; type: cell-based; conditions: 100 μg of specimen on 9 mm filter paper
Description: as §5

Bacillus natto = assay: as above; type: cell-based; conditions: 100 μg of specimen on 9 mm filter paper
Description: as §5

[4] = test system: Aspergillus niger IFO6341; assay: as above; type: cell-based; conditions: 100 μg of specimen on 9 mm filter paper
Description: as §5

P388 leukemia cells = assay: In vivo antitumor activity against P388 leukemia; set-up: species or system mice
Description: Male CDF1 mice (4 weeks old) were inoculated intraperitoneally with P388 leukemia cells (1×10^6 cells/body) on day 0. […] Each group consisted of six mice. A T/C (%) was calculated according to the following formula:
T/C (%)=[(mean number of survival days of treated group)/(mean number of survival days of control group)]×100

[5] = calculated from (−)-PLH content 41.7%
[6] = 4.2 mg/kg (1 mg/kg calculated (−)-PLH) i.p. daily days 1 to 12
[7] = 12.5 mg/kg (3 mg/kg calculated (−)-PLH) i.p. daily days 1 to 12
[8] = 42 mg/kg (10 mg/kg calculated (−)-PLH) i.p. daily days 1 to 12
[9] = 125 mg/kg (30 mg/kg calculated (−)-PLH) i.p. daily days 1 to 12

C=CC(C)(C)c1[nH]cnc1/C=C1\NC(=O)[C@H](Cc2ccccc2)NC1=O [(−)-phenylahistin]
95% confidence limit of ED50, as (−)-PLH (Colon 26 cells; [5]): 12.1˜165.8 mg/kg/day | ED50, calculated dose of (−)-PLH (Colon 26 cells; [5]): 44.7 mg/kg/day | 95% confidence limit of ED50, as (−)-PLH [1, 5]: 9.2˜210.2 mg/kg/day | ED50, calculated dose of (−)-PLH [1, 5]: 43.9 mg/kg/day | cell cycle inhibitory activity (G2/M) (P388 cells): exhibited cell cycle inhibitory activity | cell cycle inhibitory activity (G2/M) (P388 cells; listed as (−)-PLH): completely inhibits the cell cycle progression | mitotic index (A549 cells; 24 hours): increased | reversibility of the anti-mitotic effect (A549 cells; after washing and replacement with fresh medium): reversible

C=CC(C)(C)c1[nH]cnc1/C=C1\NC(=O)[C@H](Cc2ccccc2)NC1=O (racemic) [PLH, phenylahistin]
antimicrobial activity [2]: no antimicrobial activity | rate of suppression (excised tumor weight) (Colon 26 cells; 24 mg/kg/day): 4.0% | weight of the excised tumor on the fifteenth day (Colon 26 cells; 24 mg/kg/day): 1,113 mg | body weight (Colon 26 cells; 24 mg/kg/day and 72 mg/kg/day): No marked changes in the weight | increments of ETW (Colon 26 cells; 24 mg/kg/day and 72 mg/kg/day): slightly lower than those of the control group | rate of suppression (excised tumor weight) (Colon 26 cells; 72 mg/kg/day): 27.3% | weight of the excised tumor on the fifteenth day (Colon 26 cells; 72 mg/kg/day): 843 mg | body weight (Colon 26 cells; 240 mg/kg/day): lower than that of the control group from day 3 | mice died (Colon 26 cells; 240 mg/kg/day): one mouse died on day 12, two died on day 13 and one died on day 14 | rate of suppression (excised tumor weight) (Colon 26 cells; 240 mg/kg/day): 81.8% | weight of the excised tumor on the fifteenth day (Colon 26 cells; 240 mg/kg/day): 211 mg | ETW (Colon 26 cells; 240 mg/kg/day, day 7): 14 mg | suppression rate (ETW) (Colon 26 cells; 240 mg/kg/day, day 10): 64.4% | suppression rate (ETW) (Colon 26 cells; 240 mg/kg/day, day 13): 78.8% | ETW (Colon 26 cells; 240 mg/kg/day, day 15): 254 mg | suppression rate (ETW) (Colon 26 cells; 240 mg/kg/day, day 15): 85.4% | 95% confidence limit of ED50 (Colon 26 cells; PLH with (−)-PLH content 41.7%): 29.0˜397.7 mg/kg/day | ED50 (Colon 26 cells; PLH with (−)-PLH content 41.7%): 107.3 mg/kg/day | mice died (Colon 26 cells; mouse, in vivo): No mice died | antimicrobial activity [3]: No antimicrobial activity | antimicrobial activity (Bacillus natto): No antimicrobial activity | antimicrobial activity [4]: No antimicrobial activity | rate of suppression (excised tumor weight) ([1]; 24 mg/kg/day): 9.9% | weight of the excised tumor on the fifteenth day ([1]; 24 mg/kg/day): 2,941 mg | estimated tumor weight (ETW) ([1]; 24 mg/kg/day, day 7): 86 mg | estimated tumor weight (ETW) ([1]; 24 mg/kg/day, day 15): 2,244 mg | rate of suppression (excised tumor weight) ([1]; 72 mg/kg/day): 27.1% | weight of the excised tumor on the fifteenth day ([1]; 72 mg/kg/day): 2,380 mg | estimated tumor weight (ETW) ([1]; 72 mg/kg/day, day 7): 34 mg | estimated tumor weight (ETW) ([1]; 72 mg/kg/day, day 15): 2,142 mg | mice died ([1]; 72 mg/kg/day, on day 11): 1 mouse | body weight ([1]; 240 mg/kg/day): markedly lower than control values after day 3, and significantly lower on day 6 | rate of suppression (excised tumor weight) ([1]; 240 mg/kg/day): 81.0% | weight of the excised tumor on the fifteenth day ([1]; 240 mg/kg/day): 619 mg | estimated tumor weight (ETW) ([1]; 240 mg/kg/day, day 7): 34 mg | suppression of the ETW ([1]; 240 mg/kg/day, day 10): 81.8% | suppression of the ETW ([1]; 240 mg/kg/day, day 13): 82.3% | estimated tumor weight (ETW) ([1]; 240 mg/kg/day, day 15): 617 mg | suppression of the ETW ([1]; 240 mg/kg/day, day 15): 73.2% | mice died ([1]; 240 mg/kg/day, on day 13): 1 mouse | body weight ([1]; 24 and 72 mg/kg/day): little change in body weight | 95% confidence limit of ED50 ([1]; PLH with (−)-PLH content 41.7%): 22.0˜504.1 mg/kg/day | ED50 ([1]; linear regression of suppression rate, PLH with (−)-PLH content 41.7%): 105.3 mg/kg/day | mice died ([1]; mouse, in vivo): None | Mean Body weight on day 12 (P388 leukemia cells; [6]): 25.3 ± 0.4 g | Mean Number of Survival days (P388 leukemia cells; [6]): 14.6 ± 0.6 days | T/C (%) (P388 leukemia cells; [6]): 117% | Mean Body weight on day 12 (P388 leukemia cells; [7]): 24.1 ± 0.6 g | Mean Number of Survival days (P388 leukemia cells; [7]): 14.6 ± 0.5 days | T/C (%) (P388 leukemia cells; [7]): 117% | Mean Body weight on day 12 (P388 leukemia cells; [8]): 23.0 ± 0.5 g | Mean Number of Survival days (P388 leukemia cells; [8]): 16.1 ± 0.8 days | T/C (%) (P388 leukemia cells; [8]): 129% | Mean Body weight on day 12 (P388 leukemia cells; [9]): 22.3 ± 0.3 g | Mean Number of Survival days (P388 leukemia cells; [9]): 18.9 ± 0.9 days | T/C (%) (P388 leukemia cells; [9]): 151% | increases in body weight seen in the control group (P388 leukemia cells; daily administrations of PLH 41.5 and 124 mg/kg): suppressed | T/C (P388 leukemia cells; daily dosage of 41.5 mg/kg for 12 days): 129% | T/C (P388 leukemia cells; daily dosage of 124 (30) mg/kg for 12 days): 151% | tremorgenic side effects (P388 leukemia cells; highest dose (124 mg/kg/day)): did not induce such side effects | T/C (P388 leukemia cells; single administration, 415 mg/kg PLH [(−)-PLH 100 mg/kg]): 115%
